Patent US12473289B2, “Heterocyclic compounds as delta-5 desaturase inhibitors and methods of use” (Amgen Inc., priority 2019, dated 2025)

Each compound was assayed against Delta-5-Desaturase (D5D) (Homo sapiens (Human), UniProt O60427) (assay: In vitro measurement of Delta-5-Desaturase inhibitory activity using DGLA-CoA and Arachidonyl-CoA mass spectrometric assays). Settings: membrane preparations of D5D-overexpressing HEK293 6E cells; averaged over at least two independent runs.
Assay type: biochemical
Procedure, shortened: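 DGLA-CoA and arachidonyl-CoA were read by RapidFire SPE triple-quad MS (negative mode, MRM) after a 1 h ambient-temperature reaction quenched with acetonitrile. Enzyme was D5D-overexpressing HEK293 6E membranes at 10 μg/mL final; substrate solution held 0.01 mM DGLA plus NADH, ATP and CoA. Inhibition was referenced to DMSO and no-enzyme wells; 4PL IC50.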

Sequence of Delta-5-Desaturase (D5D) (Homo sapiens (Human), UniProt O60427) (O60427 whole entry, species assumed): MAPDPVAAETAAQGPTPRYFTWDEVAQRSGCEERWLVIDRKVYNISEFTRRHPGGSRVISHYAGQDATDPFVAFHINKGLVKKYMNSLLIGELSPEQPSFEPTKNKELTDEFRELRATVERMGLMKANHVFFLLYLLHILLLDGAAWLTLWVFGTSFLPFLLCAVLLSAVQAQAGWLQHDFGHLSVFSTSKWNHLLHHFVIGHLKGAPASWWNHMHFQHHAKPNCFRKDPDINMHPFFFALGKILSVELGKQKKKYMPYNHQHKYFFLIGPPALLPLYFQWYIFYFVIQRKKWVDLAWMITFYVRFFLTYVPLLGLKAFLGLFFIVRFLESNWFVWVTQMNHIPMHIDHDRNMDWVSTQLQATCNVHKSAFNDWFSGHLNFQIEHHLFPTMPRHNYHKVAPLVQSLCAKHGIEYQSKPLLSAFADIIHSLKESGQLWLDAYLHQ

IC50 [nM] | SMILES
11.3 | COc1ccn2c(=O)c(-c3ccc(OCC(C)(F)F)cc3)c(C(F)(F)F)nc2c1 [Example 9-2, 3-(4-(2,2-difluoropropoxy)phenyl)-8-methoxy-2-(trifluoromethyl)-4H-pyrido[1,2-a]pyrimidin-4-one]
2950 | O=c1c(-c2cnn(CCC(F)(F)F)c2)c(C(F)(F)F)nc2ccc(C3CC3)cn12 [Example 39-22, 7-cyclopropyl-2-(trifluoromethyl)-3-[1-(3,3,3-trifluoropropyl)-1H-pyrazol-4-yl]-4H-pyrido[1,2-a]pyrimidin-4-one]
1430 | CC(C)(O)c1ccn2c(=O)c(-c3cnn(CC(F)(F)C(F)(F)F)c3)c(C(F)(F)F)nc2c1 [Example 39-7, 8-(2-hydroxypropan-2-yl)-3-[1-(2,2,3,3,3-pentafluoropropyl)-1H-pyrazol-4-yl]-2-(trifluoromethyl)-4H-pyrido[1,2-a]pyrimidin-4-one]
22.5 | COc1ccn2c(=O)c(-c3ccc(OCC(F)(F)F)cc3Cl)c(C(F)(F)F)nc2c1 [Example 8-3, 3-(2-chloro-4-(2,2,2-trifluoroethoxy)phenyl)-8-methoxy-2-(trifluoromethyl)-4H-pyrido[1,2-a]pyrimidin-4-one]
105 | Cc1cnn2c(=O)c(-c3ccc(OCC(F)(F)F)cc3)c(C(F)(F)F)nc2c1 [Example 39-50, 8-methyl-3-[4-(2,2,2-trifluoroethoxy)phenyl]-2-(trifluoromethyl)-4H-pyrimido[1,2-b]pyridazin-4-one]
154 | Cc1ccc2nc(C(F)(F)F)c(-c3cnn(CC(F)(F)C(F)(F)F)c3)c(=O)n2n1 [Example 39-32, 7-methyl-3-[1-(2,2,3,3,3-pentafluoropropyl)-1H-pyrazol-4-yl]-2-(trifluoromethyl)-4H-pyrimido[1,2-b]pyridazin-4-one]
248 | COc1ccn2c(=O)c(-c3cnc(OCC(F)(F)F)nc3)c(C(F)(F)F)nc2n1 [Example 39-13, 8-methoxy-3-[2-(2,2,2-trifluoroethoxy)pyrimidin-5-yl]-2-(trifluoromethyl)-4H-[1,3]diazino[1,2-a]pyrimidin-4-one]
5 | COc1cc2nc(C(F)(F)F)c(-c3cnn(CC4CC4(F)F)c3)c(=O)n2cc1F (racemic) [Example 39-59, 3-{1-[(2,2-difluorocyclopropyl)methyl]-1H-pyrazol-4-yl}-7-fluoro-8-methoxy-2-(trifluoromethyl)-4H-pyrido[1,2-a]pyrimidin-4-one]
748 | COc1cnn2c(=O)c(-c3cnn(CC4CC(F)(F)C4)c3)c(C(F)(F)F)nc2c1 [Example 39-55, 3-{1-[(3,3-difluorocyclobutyl)methyl)-1H-pyrazol-4-yl}-8-methoxy-2-(trifluoromethyl)-4H-pyrimido[1,2-b]pyridazin-4-one]
685 | CCNC(=O)c1ccn2c(=O)c(-c3ccc(OCC(F)(F)F)cc3)c(C(F)(F)F)nc2c1 [Example 12-4, N-ethyl-4-oxo-3-(4-(2,2,2-trifluoroethoxy)phenyl)-2-(trifluoromethyl)-4H-pyrido[1,2-a]pyrimidine-8-carboxamide]

More lines, now with the values behind:

SMILES | IC50 [nM]
CCOc1nc2cc(OC)ccn2c(=O)c1-c1ccc(OCC(F)(F)F)cc1 [Example 1-81, 2-ethoxy-8-methoxy-3-(4-(2,2,2-trifluoroethoxy)phenyl)-4H-pyrido[1,2-a]pyrimidin-4-one] | 12.9
O=c1c(-c2cnn(CC(F)(F)C(F)(F)F)c2)c(C(F)(F)F)nc2cc(OCF)ccn12 [Example 45, 8-(Fluoromethoxy)-3-[1-(2,2,3,3,3-pentafluoropropyl)-1H-pyrazol-4-yl]-2-(trifluoromethyl)-4H-pyrido[1,2-a]pyrimidin-4-one] | 10.1
COc1ccn2c(=O)c(-c3ccc(OCC(F)(F)F)cc3C)c(C(F)(F)F)nc2c1 [Example 4-3, 8-methoxy-3-(2-methyl-4-(2,2,2-trifluoroethoxy)phenyl)-2-(trifluoromethyl)-4H-pyrido[1,2-a]pyrimidin-4-one] | 22
[2H]C([2H])([2H])Oc1ccn2c(=O)c(-c3cnn(CC(F)(F)C(F)(F)F)c3)c(C(F)(F)F)nc2c1 [Example 1-33, 8-(methyloxy-d3)-3-(1-(2,2,3,3,3-pentafluoropropyl)-1H-pyrazol-4-yl)-2-(trifluoromethyl)-4H-pyrido[1,2-a]pyrimidin-4-one] | 17.3
O=c1c(-c2cnn(C3CC3)c2)c(C(F)(F)F)nc2ccccn12 [Example 5-3, 3-(1-cyclopropyl-1H-pyrazol-4-yl)-2-(trifluoromethyl)-4H-pyrido[1,2-a]pyrimidin-4-one] | 5190
COc1ccn2c(=O)c(-c3cnn(CCCC(F)(F)F)c3)c(C(F)F)nc2c1 [Example 1-16, 2-(difluoromethyl)-8-methoxy-3-(1-(4,4,4-trifluorobutyl)-1H-pyrazol-4-yl)-4H-pyrido[1,2-a]pyrimidin-4-one] | 383
COc1ccn2c(=O)c(-c3ccc(CCC#N)cc3)c(C(F)(F)F)nc2c1 [Example 1-1, 3-(4-(8-Methoxy-4-oxo-2-(trifluoromethyl)-4H-pyrido[1,2-a]pyrimidin-3-yl)phenyl)propanenitrile] | 197
COc1ccn2c(=O)c(-c3cnn(C[C@H]4CC4(F)F)c3)c(C(F)(F)F)nc2c1 [Example 69, 3-(1-{[(1R)-2,2-Difluorocyclopropyl]methyl}-1H-pyrazol-4-yl)-8-methoxy-2-(trifluoromethyl)-4H-pyrido[1,2-a]pyrimidin-4-one] | 18.2
COc1ccn2c(=O)c(-c3cnn(-c4cccc(F)c4)c3)c(C(F)(F)F)nc2c1 [Example 1-18, 3-(1-(3-fluorophenyl)-1H-pyrazol-4-yl)-8-methoxy-2-(trifluoromethyl)-4H-pyrido[1,2-a]pyrmidin-4-one] | 25.2
COc1ccn2c(=O)c(-c3ccc(OC[C@@H]4CC4(F)F)cc3)c(C(F)(F)F)nc2c1 (single isomer, unassigned) [Example 1-84] | 2.7
[2H]C([2H])([2H])Oc1ccn2c(=O)c(-c3ccc(OCC4CC4)cc3)c(C(F)(F)F)nc2c1 [Example 1-65, 3-(4-(cyclopropylmethoxy)phenyl)-8-(methyloxy-d3)-2-(trifluoromethyl)-4H-pyrido[1,2-a]pyrimidin-4-one] | 3.2
CCCc1cc(-c2c(C(F)(F)F)nc3cc(OC)ccn3c2=O)no1 [Example 61, 8-Methoxy-3-(5-propyl-1,2-oxazol-3-yl)-2-(trifluoromethyl)-4H-pyrido[1,2-a]pyrimidin-4-one] | 46.9
COc1ccn2c(=O)c(-c3ncn(CC(F)(F)C(F)(F)F)n3)c(C(F)(F)F)nc2c1 [Example 54, 8-Methoxy-3-[1-(2,2,3,3,3-pentafluoropropyl)-1H-1,2,4-triazol-3-yl]-2-(trifluoromethyl)-4H-pyrido[1,2-a]pyrimidin-4-one] | > 67000
O=c1c(-c2ccc(OCC(F)(F)F)cc2)c(C(F)(F)F)nc2cc(C3CC3)ccn12 [Example 4-2, 8-cyclopropyl-3-(4-(2,2,2-trifluoroethoxy)phenyl)-2-(trifluoromethyl)-4H-pyrido[1,2-a]pyrimidin-4-one] | 111
COc1ccn2c(=O)c(-c3ccc(OCCF)cc3)c(C(F)(F)F)nc2n1 [Example 1-57, 3-(4-(2-fluoroethoxy)phenyl)-8-methoxy-2-(trifluoromethyl)-4H-pyrimido[1,2-a]pyrimidin-4-one] | 226
CS(=O)(=O)c1ccn2c(=O)c(-c3ccc(OCC(F)(F)F)cc3)c(C(F)(F)F)nc2c1 [Example 19, 8-(Methylsulfonyl)-3-(4-(2,2,2-trifluoroethoxy)phenyl)-2-(trifluoromethyl)-4H-pyrido[1,2-a]pyrimidin-4-one] | 10100

The compounds below were run against Delta-5-Desaturase (D5D) (Mus musculus (Mouse), UniProt Q920L1) (assay: In vivo measurement of Delta-5-Desaturase inhibitory activity (plasma AA/DGLA ratio in DIO mice)). Settings: single oral dose 30 mg/kg, read-out: Average % D5D Inhibition expressed as Plasma Endogenous AA/DGLA Ratio.
Protocol: In vivo Measurement of Delta-5-Desaturase Inhibitory Activity
Diet-induced obese (DIO; Jackson Laboratories strain #3800050) mice were used to screen for pharmacodynamic (PD) activity of test compounds. Generally, 14 to 24 week old DIO mice, were administered test compounds formulated in the vehicle of 2% hydroxypropyl methylcellulose (HPMC) and 1% Tween80. Animals were dosed on body weight by oral gavage with a single dose (30 mg/kg) for PD studies. Necropsy included plasma collection for PUFA analysis. 10 μl of plasma or standards diluted in surrogate matrix (65 g/l bovine serum albumin in Dulbecco's phosphate-buffered saline) were mixed with 10 μl of an internal standard (100 μM alpha-linolenic acid-d14 (ALA-d14, Cayman Chemical)) in a 96 well plate. 100 μl of 2N NAOH was added to the mixture for subsequent saponification at 65° C. for 1 hour. The mixture was then acidified with 50 μl of formic acid followed by two consecutive hexane extractions. Hexane (500 μl) was added and the mixture thoroughly mixed by vortexing, followed by centrifugation at 4,000 rpm for 15 min. The hexane phase was transferred to a new 1 ml 96 well plate and the remaining aqueous layer was extracted with hexane. The organic extracts were combined and the solvent was removed by placing the plate under nitrogen gas at 55° C. 250 μl of 90% methanol was added to the plate followed by vortexing for 2 minutes. 200 μl of the samples were transferred to a new 96 well polypropylene plate. The samples were analyzed on a LC-MS/MS for the following PUFAs: arachidonic acid (AA), dihomo-gamma-linolenic acid (DGLA), with ALA-d14 as the internal standard. Description of the LC-MS/MS method: 5 μl of sample was injected onto a Poroshell 120 EC-C18 3.0×50 mm, 1.9 μm id column. […] The PUFA peak areas were quantified by using the SCIEX Analyst software. […] The relative decrease of the AA/DGLA ratio of the test compound administered group relative to the vehicle administered group was calculated and used as an index for the degree of D5D inhibition.
The results presented in Table 27 were obtained using certain compounds described herein in the in vivo protocol described above.

Sequence of Delta-5-Desaturase (D5D) (Mus musculus (Mouse), UniProt Q920L1) (Q920L1 whole entry): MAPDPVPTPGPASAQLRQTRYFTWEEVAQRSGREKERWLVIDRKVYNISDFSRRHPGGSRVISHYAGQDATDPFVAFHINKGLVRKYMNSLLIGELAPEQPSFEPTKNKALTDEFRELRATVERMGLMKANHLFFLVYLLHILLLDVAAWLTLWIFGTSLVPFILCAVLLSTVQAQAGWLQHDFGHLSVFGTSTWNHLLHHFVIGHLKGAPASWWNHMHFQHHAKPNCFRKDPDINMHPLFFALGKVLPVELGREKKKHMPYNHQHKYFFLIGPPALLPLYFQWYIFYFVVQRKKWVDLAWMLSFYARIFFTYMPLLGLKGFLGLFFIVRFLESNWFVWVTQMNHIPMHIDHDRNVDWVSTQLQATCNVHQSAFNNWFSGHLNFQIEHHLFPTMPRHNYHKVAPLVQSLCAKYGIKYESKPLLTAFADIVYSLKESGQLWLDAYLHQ

inhibition in vivo at 30 mg/kg [%] | SMILES
44 | CCOc1nc2cc(OC)ccn2c(=O)c1-c1ccc(OCC(F)(F)F)cc1 [Example 1-81, 2-ethoxy-8-methoxy-3-(4-(2,2,2-trifluoroethoxy)phenyl)-4H-pyrido[1,2-a]pyrimidin-4-one]
62 | O=c1c(-c2cnn(CC(F)(F)C(F)(F)F)c2)c(C(F)(F)F)nc2cc(OCF)ccn12 [Example 45, 8-(Fluoromethoxy)-3-[1-(2,2,3,3,3-pentafluoropropyl)-1H-pyrazol-4-yl]-2-(trifluoromethyl)-4H-pyrido[1,2-a]pyrimidin-4-one]
60 | COc1ccn2c(=O)c(-c3ccc(OCC(F)(F)F)cc3C)c(C(F)(F)F)nc2c1 [Example 4-3, 8-methoxy-3-(2-methyl-4-(2,2,2-trifluoroethoxy)phenyl)-2-(trifluoromethyl)-4H-pyrido[1,2-a]pyrimidin-4-one]
84 | [2H]C([2H])([2H])Oc1ccn2c(=O)c(-c3cnn(CC(F)(F)C(F)(F)F)c3)c(C(F)(F)F)nc2c1 [Example 1-33, 8-(methyloxy-d3)-3-(1-(2,2,3,3,3-pentafluoropropyl)-1H-pyrazol-4-yl)-2-(trifluoromethyl)-4H-pyrido[1,2-a]pyrimidin-4-one]
67 | COc1ccn2c(=O)c(-c3ccc(OCC(C)(F)F)cc3)c(C(F)(F)F)nc2c1 [Example 9-2, 3-(4-(2,2-difluoropropoxy)phenyl)-8-methoxy-2-(trifluoromethyl)-4H-pyrido[1,2-a]pyrimidin-4-one]
66 | Nc1ccn2c(=O)c(-c3ccc(OCC(F)(F)F)cc3)c(C(F)(F)F)nc2c1 [Example 6-2, 8-amino-3-(4-(2,2,2-trifluoroeth-oxy)phenyl)-2-(trifluoromethyl)-4H-pyrido[1,2-a]pyrimidin-4-one]
35 | COc1ccn2c(=O)c(-c3ccc(OC(F)(F)F)cc3F)c(C(F)(F)F)nc2c1 [Example 1-9, 3-(2-fluoro-4-(trifluoromethoxy)phenyl)-8-methoxy-2-(trifluoromethyl)-4H-pyrido[1,2-a]pyrimidin-4-one]
